Measurements reported in patent publication US9018194B2 (Nibon University, priority 2011, dated 2015).

Assays:
human VDR [1] = target: T1, human VDR (Homo sapiens, UniProt P11473); conditions: for VDR binding ability, rank in words: among ADTK1 through ADTK4
T1 sequence (P11473 1-427): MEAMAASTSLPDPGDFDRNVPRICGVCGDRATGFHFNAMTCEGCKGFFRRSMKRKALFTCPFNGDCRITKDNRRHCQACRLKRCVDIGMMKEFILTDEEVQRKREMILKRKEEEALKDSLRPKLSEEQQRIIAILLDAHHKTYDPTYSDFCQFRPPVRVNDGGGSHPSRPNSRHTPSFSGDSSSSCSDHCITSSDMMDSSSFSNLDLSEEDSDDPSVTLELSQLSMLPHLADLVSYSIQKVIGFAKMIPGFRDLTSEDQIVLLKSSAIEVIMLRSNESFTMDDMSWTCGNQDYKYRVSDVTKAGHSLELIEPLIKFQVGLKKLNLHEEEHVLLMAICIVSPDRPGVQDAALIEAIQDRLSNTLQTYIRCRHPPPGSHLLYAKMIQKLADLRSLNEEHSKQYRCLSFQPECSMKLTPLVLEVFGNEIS

human VDR [2] = target: T1, human VDR; assay: VDR transcription induction activity, luciferase reporter assay (mouse osteopontin VDRE) in HEK293 cells transfected with human VDR; format: cell-based; set-up: expressed in transfected cells; host or cells: HEK293 cells; conditions: for efficacy of VDR transcription induction, % of that of the natural hormone / concentration at which the highest transcription activity was shown: HEK293 cells; for efficacy of VDR transcription induction, % of that of the natural hormone: Sppx3-tk-LUC reporter, relative to 1,25(OH)2D3; for concentration at which the highest transcription activity was shown: 10^-8 M was the lowest concentration used
Procedure: Briefly, HEK cells were transfected with human VDR expression vector (pCMX-VDR) and expression vectors for VDR responsive luciferase (Sppx3-tk-LUC) and β-galactosidase by the calcium phosphate method. Eight hours later, compounds were added to the cells. After culturing for 16-24 hr, cells were harvested, and the activities of luciferase and β-galactosidase were measured. Luciferase activity values were corrected with β-galactosidase activity values.

VDR binding ability, rank in words (human VDR [1]) | affinity for human VDR relative to the natural hormone 1,25(OH)2D3 (human VDR [1]; competition with [3H]-1,25(OH)2D3, 1,25(OH)2D3 = 100%) | efficacy of VDR transcription induction, % of that of the natural hormone (human VDR [2]) | concentration at which the highest transcription activity was shown (human VDR [2]) | type of activity at VDR (in words) (human VDR [2]; HEK293 luciferase assay, alone and in co-presence of 1,25(OH)2D3) | Compound
highest VDR binding activity | 67% | 66% | 10^−8 M | partial agonist | (25R)-25-(1-Adamantyl)-1α,25-dihydroxy-2-methylene-23,23,24,24-tetradehydro-19,26,27-trinorvitamin D3 [ADTK2]
lowest VDR binding ability | – | 72% | around 10^−7 M | – | C=C1[C@H](O)CC(=C/C=C2\CCC[C@]3(C)[C@@H]([C@H](C)CC#C[C@H](O)CC45CC6CC(CC(C6)C4)C5)CC[C@@H]23)C[C@H]1O [ADTK3, (25R)-26-(1-Adamantyl)-1α,25-dihydroxy-2-methylene-23,23,24,24-tetradehydro-19,27-dinorvitamin D3]
– | – | 54% | around 10^−7 M | – | C=C1[C@H](O)CC(=C/C=C2\CCC[C@]3(C)[C@@H]([C@H](C)CC#C[C@@H](O)CC45CC6CC(CC(C6)C4)C5)CC[C@@H]23)C[C@H]1O [ADTK4, (25S)-26-(1-Adamantyl)-1α,25-dihydroxy-2-methylene-23,23,24,24-tetradehydro-19,27-dinorvitamin D3]
– | – | 40% | around 10^−7 M | – | (25S)-25-(1-Adamantyl)-1α,25-dihydroxy-2-methylene-23,23,24,24-tetradehydro-19,26,27-trinorvitamin D3 [ADTK1]
